Where “and” joins values, the source holds several entries; their conditions need not be identical. Equal values may be shown once. Read-outs that look alike come from different tables or passages of the source.
Tests used:
HIV = type: cell-based; conditions: for duration of action: cell culture, cysteamine re-added every 12 hours, WR-1065 added once in a 72 hour period
[1] = in vivo; cited from earlier work
[2] = mouse, in vivo, cited from earlier work
[3] = mouse, in vivo; cited from earlier work
Ad7-p (strain Gomen) = experiment: Infectious virus yield in A549 cell monolayers, Ad7-p; type: cell-based, adenovirus species B
Ad4-p (strain RI-67) = experiment: Infectious virus yield in A549 cell monolayers, Ad4-p; type: cell-based, adenovirus species E
[4] = rhesus macaques, cited from earlier work
[5] = tested on: Ad5-p (strain Adenoid 75); experiment: Infectious virus yield in A549 cell monolayers, Ad5-p; type: cell-based, adenovirus species C
PHA blasts = experiment: Viability of PHA blasts exposed to WR-1065; type: cell-based, Human; conditions: uninfected PHA blasts
Adenovirus 5p = experiment: Plaque reduction assay in A549 cells; type: cell-based
A/HKx31 (H3N2) = type: cell-based, influenza A
[6] = Experiment #1, 10 μM AZT, 72 hours
[7] = Experiment #1, 1000 μM WR1065, 72 hours

Cc1cn([C@H]2C[C@H](N=[N+]=[N-])[C@@H](CO)O2)c(=O)[nH]c1=O [AZT, Zidovudine]
Estimated percent viral inhibition (HIV; [6]): ~100% | HIV P24 (HIV; [6]): 0.13 pg/mL | Estimated percent viral inhibition (HIV; Experiment #3, 10 μM AZT): ~100% | HIV P24 (HIV; Experiment #3, 10 μM AZT): 2.9 pg/mL

NCCCNCCSP(=O)(O)O [Amifostine, S-2-(3-aminopropyl)aminoethyl phosphorothioic acid]
effects of single doses [1]: no untoward effects | maximally tolerated dose (MTD) ([2]; ip): 432 mg/kg BW | maximally tolerated dose (MTD) ([2]; po): 720 mg/kg BW | 100% effective radioprotective dose [3]: about one half

NCCCNCCS [WR-1065, 2-(3-aminopropylamino)ethanethiol]
Estimated percent viral inhibition (HIV; [7]): ~100% | HIV P24 (HIV; [7]): 0.13 pg/mL | suppression of HIV replication (HIV; WR-1065 at a concentration of less than 100 μM): > 99.9% | duration of action (HIV): long duration of action | in vitro anti-HIV activity relative to cysteamine (HIV; compared by effective concentration): over 2 fold | Mean infectious virus yields 96-h post infection & WR 1065 treatment (Ad7-p (strain Gomen); Trial 1, <10 μM WR 1065): 1.85 PFUs × 10^6 | Mean infectious virus yields 96-h post infection & WR 1065 treatment (Ad7-p (strain Gomen); Trial 1, <33 μM WR 1065): 0.85 PFUs × 10^6 | Mean infectious virus yields 96-h post infection & WR 1065 treatment (Ad7-p (strain Gomen); Trial 1, <100 μM WR 1065): 1.15 PFUs × 10^6 | Mean infectious virus yields 96-h post infection & WR 1065 treatment (Ad7-p (strain Gomen); Trial 2, <100 μM WR 1065): 30.5 PFUs × 10^6 | Mean infectious virus yields 96-h post infection & WR 1065 treatment (Ad4-p (strain RI-67); Trial 1, <33 μM WR 1065): 1,420 PFUs × 10^6 | Mean infectious virus yields 96-h post infection & WR 1065 treatment (Ad4-p (strain RI-67); Trial 1, <100 μM WR 1065): 980 PFUs × 10^6 | Mean infectious virus yields 96-h post infection & WR 1065 treatment (Ad4-p (strain RI-67); Trial 2, <100 μM WR 1065): 9.5 PFUs × 10^6 | Concentration (plasma) ([4]; 1 h after duodenal administration of 150 mg/kg BW of parent drug): 6.21 µg/mL | Concentration (plasma) ([4]; 2 h after duodenal administration of 150 mg/kg BW of parent drug): 4.14 µg/mL | Concentration (plasma) ([4]; 6 h after duodenal administration of 150 mg/kg BW of parent drug): 2.07 µg/mL | Mean infectious virus yields 96-h post infection & WR 1065 treatment ([5]; Trial 1, <10 μM WR 1065): 9.0 PFUs × 10^6 | Mean infectious virus yields 96-h post infection & WR 1065 treatment ([5]; Trial 1, <33 μM WR 1065): 5.65 PFUs × 10^6 | Mean infectious virus yields 96-h post infection & WR 1065 treatment ([5]; Trial 1, <100 μM WR 1065): 2.25 PFUs × 10^6 | Mean infectious virus yields 96-h post infection & WR 1065 treatment ([5]; Trial 2, <33 μM WR 1065): 600 PFUs × 10^6 | Mean infectious virus yields 96-h post infection & WR 1065 treatment ([5]; Trial 2, <100 μM WR 1065): 500 PFUs × 10^6 | Mean infectious virus yields 96-h post infection & WR 1065 treatment ([5]; Trial 3, <33 μM WR 1065): 1,660 PFUs × 10^6 | % Viable Cells (compared to control) (PHA blasts; 1 μM WR-1065, 72 hours): 83% | % Viable Cells (compared to control) (PHA blasts; 5 μM WR-1065, 72 hours): 82% | % Viable Cells (compared to control) (PHA blasts; 10 μM WR-1065, 72 hours): 90% | % Viable Cells (compared to control) (PHA blasts; 50 μM WR-1065, 72 hours): 89% | % Viable Cells (compared to control) (PHA blasts; 100 μM WR-1065, 72 hours): 63% | % Viable Cells (compared to control) (PHA blasts; 500 μM WR-1065, 72 hours): 73% | % Viable Cells (compared to control) (PHA blasts; 1000 μM WR-1065, 72 hours): 30% | plaque number (plaque reduction assay) (Adenovirus 5p; 16.5 μM WR1065): 63 | plaque number (plaque reduction assay) (Adenovirus 5p; 50 μM WR1065): 41 | reduction of plaque number (Adenovirus 5p; 50 μM WR1065): 36% | Mean plaque number (A/HKx31 (H3N2)): 59.3 and 57 and 48

NCCS [cysteamine, Cysteamine]
suppression of HIV replication (HIV; 200 μM cysteamine, in vitro assay system as described above): ~100% | duration of action (HIV): very short

From patent US9849143B2, “Broad spectrum antiviral and methods of use” (The Burlington HC Research Group, Inc., priority 2006, dated 2017)
